Laboratory results published in patent US20250234864A1 (priority 2022, published 2025).
Several values for one entry are separate records, joined by “and”; a condition that tells them apart may be missing. Equal values may be shown once. Read-outs that look alike come from different tables or passages of the source.

Experiments:
Pyricularia oryzae [1] = experiment: whole plant or invertebrate; type: in vivo; conditions: rice seedlings, spray before inoculation; for pest or weed control at 0.01 ppm: read-out: Control Efficacy, spray concentration 0.01 ppm; for pest or weed control at 100 ppm: read-out: Control Efficacy, spray concentration 100 ppm; for pest or weed control at 25 ppm: read-out: Control Efficacy, spray concentration 25 ppm; for pest or weed control at 1 ppm: read-out: Control Efficacy, spray concentration 1 ppm
Pyricularia oryzae [2] = type: in vivo; conditions: spray after lesions on rice seedlings, two natural infections

## CON=C(C(=O)OC)c1ccccc1CON=C(C)c1cccc(C(F)(F)F)c1 [Trifloxystrobin]
Pyricularia oryzae [1]; Pyricularia oryzae
  pest or weed control at 0.01 ppm: 75%

## CCCC1COC(Cn2cncn2)(c2ccc(Cl)cc2Cl)O1 (centres unmarked) [Propiconazole]
Pyricularia oryzae [1]; Pyricularia oryzae
  pest or weed control at 100 ppm: 72%
Pyricularia oryzae [2]; spray concentration 52 ppm
  Control Efficacy: 55

## O=C1CCc2cccc3c2N1CC3 [Pyroquilon]
Pyricularia oryzae [1]; Pyricularia oryzae
  pest or weed control at 100 ppm: 22%

## O=C(Nc1ccccc1-c1ccc(F)c(F)c1)c1nccnc1C(F)(F)F [Pyraziflumid]
Pyricularia oryzae [1]; spray concentration 10 ppm
  Control Efficacy: 0
Pyricularia oryzae [1]; spray concentration 100 ppm
  Control Efficacy: 56

## CCCCC(O)(Cn1cncn1)c1ccc(Cl)cc1Cl (centres unmarked) [Hexaconazole]
Pyricularia oryzae [1]; Pyricularia oryzae
  pest or weed control at 25 ppm: 55%
  pest or weed control at 100 ppm: 86%

## CO/N=C(/C1=NOCCO1)c1ccccc1Oc1ncnc(Oc2ccccc2Cl)c1F [Fluoxastrobin]
Pyricularia oryzae [1]; Pyricularia oryzae
  pest or weed control at 0.01 ppm: 22%
  pest or weed control at 1 ppm: 93%

## OC(Cc1ccccc1Cl)(Cn1nc[nH]c1=S)C1(Cl)CC1 (centres unmarked) [Prothioconazole]
Pyricularia oryzae [1]; Pyricularia oryzae
  pest or weed control at 1 ppm: 39%
  pest or weed control at 25 ppm: 82%
  pest or weed control at 100 ppm: 95%

## Cc1nc2c(F)c(F)ccc2cc1Oc1cccc(F)c1C(C)(C)O [Ipflufenoquin]
Pyricularia oryzae [1]; spray concentration 0.01 ppm
  Control Efficacy: 0
Pyricularia oryzae [1]; spray concentration 0.1 ppm
  Control Efficacy: 76

## CNC(=O)C(OC)c1ccccc1COc1cc(C)ccc1C (centres unmarked) [Mandestrobin]
Pyricularia oryzae [1]; spray concentration 0.1 ppm
  Control Efficacy: 0

## CC1COC(Cn2cncn2)(c2ccc(Oc3ccc(Cl)cc3)cc2Cl)O1 (centres unmarked) [Diphenoconazole]
Pyricularia oryzae [1]; spray concentration 50 ppm
  Control Efficacy: 62
Pyricularia oryzae [1]; spray concentration 100 ppm
  Control Efficacy: 86

## Inpyrfluxam
Pyricularia oryzae [1]; spray concentration 100 ppm
  Control Efficacy: 74

## Cc1nn(C)c(F)c1C(=O)Nc1ccccc1C(C)CC(C)C (centres unmarked) [Penflufen]
Pyricularia oryzae [1]; spray concentration 1 ppm
  Control Efficacy: 11

## CC(O)(Cn1cncn1)c1ccc(Oc2ccc(Cl)cc2)cc1C(F)(F)F (centres unmarked) [Mefentrifluconazole]
Pyricularia oryzae [1]; spray concentration 25 ppm
  Control Efficacy: 35
Pyricularia oryzae [1]; spray concentration 100 ppm
  Control Efficacy: 44

## COC(=O)N(OC)c1ccccc1COc1ccn(-c2ccc(Cl)cc2)n1 [Pyraclostrobin]
Pyricularia oryzae [1]; Pyricularia oryzae
  pest or weed control at 0.01 ppm: 44%
Pyricularia oryzae [1]; Pyricularia oryzae, read-out: Control Efficacy, spray concentration 0.1 ppm
  pest or weed control at 0.1 ppm: 64%

## CC(=O)Oc1c(C)c(C)nc2c(F)cc(C(C)(C)C)cc12 [Tebufloquin]
Pyricularia oryzae [1]; spray concentration 10 ppm
  Control Efficacy: 84 and 76 and 86 and 51 and 48
Pyricularia oryzae [1]; spray concentration 20 ppm
  Control Efficacy: 97 and 90 and 70
Pyricularia oryzae [2]; spray concentration 83 ppm, lesions on uppermost unfolded leaf of 50 seedlings
  Control Efficacy: 80 and 81

## CC(C1CC1)C(O)(Cn1cncn1)c1ccc(Cl)cc1 (centres unmarked) [Ciproconazole]
Pyricularia oryzae [1]; spray concentration 10 ppm
  Control Efficacy: 11

## CC(C)(C)C(O)(CCc1ccc(Cl)cc1)Cn1cncn1 (centres unmarked) [Tebuconazole]
Pyricularia oryzae [1]; Pyricularia oryzae, read-out: Control Efficacy, spray concentration 10 ppm
  pest or weed control at 10 ppm: 58%
Pyricularia oryzae [2]; spray concentration 52 ppm
  Control Efficacy: 63

## CO/C=C(/C(=O)OC)c1ccccc1COc1cccc(C(F)(F)F)n1 [Picoxystrobin]
Pyricularia oryzae [1]; spray concentration 0.01 ppm
  Control Efficacy: 22
Pyricularia oryzae [1]; spray concentration 0.1 ppm
  Control Efficacy: 68
